Data from ChEMBL document CHEMBL4837229 (Eur J Med Chem, 2021).
Calls of active or inactive are those of the source. The rule behind the calls is not given here.

Tests used:
Neuraminidase = Neuraminidase (Influenza A virus, UniProt B4URF0); set-up: species or system Influenza A virus (A/Anhui/1/2005(H5N1))
[1] = Inhibition of Influenza A virus (A/California/04/2009(H1N1)) Neuraminidase using MUNANA as substrate preincubated for 5 to 15 mins followed by substrate addition and measured after 30 mins by fluorescence spectrophotometric method
MDCK = assay: Cytotoxicity against MDCK cells assessed as reduction in cell viability at 250 uM; format: cell-based, Canis lupus familiaris; settings: dog
[2] = Stability of the compound in human plasma assessed as parent compound remaining measured after 60 mins; format: ADME, cell-free; settings: read-out: Stabilty
[3] = Stability of the compound in human plasma assessed as parent compound remaining measured after 30 mins; format: ADME, cell-free; settings: read-out: Stabilty
[4] = Stability of the compound in human plasma assessed as parent compound remaining measured after 120 mins; format: ADME, cell-free; settings: read-out: Stabilty
in vitro [5] = settings: rat, liver microsomes
Influenza A virus [6] = format: functional, organism-based; settings: A/California/04/2009(H1N1), MDCK, time 46.0 hrs
[7] = Stability of the compound in human plasma assessed as parent compound remaining measured immediately; format: ADME, cell-free; settings: read-out: Stabilty
Influenza A virus [8] = assay: microbe, parasite or virus in culture; settings: A/California/04/2009(H1N1), MDCK, 48 h
in vitro [9] = settings: mouse, liver microsomes
[10] = Stability of the compound in human plasma assessed as parent compound remaining measured after 10 mins; format: ADME, cell-free; settings: read-out: Stabilty
in vitro [11] = settings: human, liver microsomes

Chain of Neuraminidase (B4URF0 whole entry): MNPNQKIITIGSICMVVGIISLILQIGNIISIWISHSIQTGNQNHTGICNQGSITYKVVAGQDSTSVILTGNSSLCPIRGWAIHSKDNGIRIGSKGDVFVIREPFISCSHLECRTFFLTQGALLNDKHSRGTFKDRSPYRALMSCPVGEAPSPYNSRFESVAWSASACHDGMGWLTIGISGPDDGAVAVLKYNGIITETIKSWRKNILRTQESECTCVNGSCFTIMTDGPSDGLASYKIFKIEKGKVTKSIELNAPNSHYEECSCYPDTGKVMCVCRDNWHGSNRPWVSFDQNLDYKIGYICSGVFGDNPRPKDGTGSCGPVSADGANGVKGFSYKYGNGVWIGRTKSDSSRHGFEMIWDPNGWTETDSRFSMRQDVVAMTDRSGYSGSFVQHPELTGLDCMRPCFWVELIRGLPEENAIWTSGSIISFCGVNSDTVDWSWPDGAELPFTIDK

Compound | IC50 (Neuraminidase) | other results
CCC(CC)O[C@@H]1C=C(C(=O)O)C[C@H](NC(=O)NNCc2ccccc2)[C@H]1NC(C)=O | 4350 nM | 
CCC(CC)O[C@@H]1C=C(C(=O)O)C[C@H](NC(=O)NNCc2ccc(Cl)cc2)[C@H]1NC(C)=O | 875 nM | 
CCC(CC)O[C@@H]1C=C(C(=O)O)C[C@H](NC(=O)NNCc2cccc(OC)c2)[C@H]1NC(C)=O | 326 nM | 
CCCCCNNC(=O)N[C@H]1CC(C(=O)O)=C[C@@H](OC(CC)CC)[C@@H]1NC(C)=O | 1100 nM | 
CCC(CC)O[C@@H]1C=C(C(=O)O)C[C@H](NC(=O)NNCC2CC2)[C@H]1NC(C)=O | 4110 nM | 
CCC(CC)O[C@@H]1C=C(C(=O)O)C[C@H](NC(=O)NNCCC(C)C)[C@H]1NC(C)=O | 1530 nM | 
CCCCNNC(=O)N[C@H]1CC(C(=O)O)=C[C@@H](OC(CC)CC)[C@@H]1NC(C)=O | 38.3 nM | IC50 [1]: 332 nM
CCC(CC)O[C@@H]1C=C(C(=O)O)C[C@H](NC(=O)NNCCCc2ccccc2)[C@H]1NC(C)=O | 9150 nM | 
CCCCCCNNC(=O)N[C@H]1CC(C(=O)O)=C[C@@H](OC(CC)CC)[C@@H]1NC(C)=O | 4980 nM | 
CCC(CC)O[C@@H]1C=C(C(=O)O)C[C@H](NC(=O)NNC/C=C/c2ccccc2)[C@H]1NC(C)=O | 7850 nM | 
CCNNC(=O)N[C@H]1CC(C(=O)O)=C[C@@H](OC(CC)CC)[C@@H]1NC(C)=O | 576 nM | 
CCC(CC)O[C@@H]1C=C(C(=O)O)C[C@H](NC(=O)NNC)[C@H]1NC(C)=O |  | IC50 [1]: 249 nM
CCC(CC)O[C@@H]1C=C(C(=O)O)C[C@H](NC(=O)NNCCc2ccccc2)[C@H]1NC(C)=O | 2460 nM | 
CCC(CC)O[C@@H]1C=C(C(=O)O)C[C@H](NC(=O)NNCc2ccccc2OC)[C@H]1NC(C)=O | 2760 nM | 
CCC(CC)O[C@@H]1C=C(C(=O)O)C[C@H](NC(=O)NNCc2ccc(OC)cc2)[C@H]1NC(C)=O | 567 nM | 
CCC(CC)O[C@@H]1C=C(C(=O)O)C[C@H](NC(=O)NNCC(C)C)[C@H]1NC(C)=O | 2320 nM | 
CCC(CC)O[C@@H]1C=C(C(=O)O)C[C@H](NC(=O)NNCc2cccc(Cl)c2)[C@H]1NC(C)=O | 5850 nM | 
CCCNNC(=O)N[C@H]1CC(C(=O)O)=C[C@@H](OC(CC)CC)[C@@H]1NC(C)=O | 241 nM | 
CCC(CC)O[C@@H]1C=C(C(=O)O)C[C@H](NC(=O)NNCc2ccccc2Cl)[C@H]1NC(C)=O | 586 nM | 
CCC(CC)O[C@@H]1C=C(C(=O)O)C[C@H](NC(=O)NNC2CCOCC2)[C@H]1NC(C)=O | 1210 nM | 
CCCCCCCCNNC(=O)N[C@H]1CC(C(=O)O)=C[C@@H](OC(CC)CC)[C@@H]1NC(C)=O | > 10000 nM | 
CCC(CC)O[C@@H]1C=C(C(=O)O)C[C@H](NC(=O)NN)[C@H]1NC(C)=O | 26.8 nM | Activity (MDCK): Non-Toxic; remaining at 1 h [2]: 99.5%; remaining at 0.5 h [3]: 98.8%; remaining at 2 h [4]: 107%; IC50 [1]: 11.9 nM; half-life (in vitro [5]): 45.9 min; Activity (Influenza A virus [6]): inactive; remaining at 0 min [7]: 100%; EC50 (Influenza A virus [8]): 7.8 nM; half-life (in vitro [9]): 49.7 min; remaining at 10 min [10]: 88.6%; half-life (in vitro [11]): 72.9 min
CCC(CC)O[C@@H]1C=C(C(=O)O)C[C@H](N)[C@H]1NC(C)=O [OSELTAMIVIR CARBOXYLATE] |  | EC50 (Influenza A virus [8]): 1.4 nM
CCC(CC)O[C@@H]1C=C(C(=O)O)C[C@H](NC(N)=O)[C@H]1NC(C)=O | 254 nM | IC50 [1]: 8.7 nM
CCCCCCCNNC(=O)N[C@H]1CC(C(=O)O)=C[C@@H](OC(CC)CC)[C@@H]1NC(C)=O | 575 nM | 
